The source of these data is article PMC5754216 (ACS infectious diseases, 2016).

Broadly, the viability is a read-out of living cells in per cent, often relative to untreated cells. For orientation: IC50 means the concentration that gives 50% inhibition. Broadly, the inhibition is how much of the control response was suppressed.

One data set deals with HeLa cells. The settings on record: 10 µM.
A short description of another data set: in vitro. The settings on record: human.
Data set [1] addresses PV RNA-dependent RNA polymerase 3Dpol (Poliovirus type 1, UniProt P03300). The class given is biochemical.
In data set [2] the test system is Sb-Gluc (modified PV expressing Gaussia Luciferase). Type of data set: cell-based, poliovirus. Conditions: for Ec (%), inhibitory effect on poliovirus replication: 10 µM.
Data set [3] deals with WT-PV (wild type PV Mahoney). Type of data set: cell-based, poliovirus. The settings on record: 25 μM, 48 h.
The test system of data set [4] is WT-PV (wild type PV Mahoney). The experiment in a line: microbe, parasite or virus in culture. Type of data set: cell-based, poliovirus.
The next data set concerns Sb-GLuc. The class given is cell-based, poliovirus.
The test system of a further data set is 293T cells. The experiment in a line: Cytotoxicity in 293T cells. Type of data set: cell-based. The settings on record: up to 100 μM.
The next data set deals with Vero cells. The experiment in a line: Viability of Vero cells. The class given is cell-based. The settings on record: 0.1 μM.
Data set [5] is classed as in vivo. Conditions: rhesus macaques, pilot PK studies.

“Also recorded” adds a separate entry of the source. Where a name gives a salt, the structure may show the parent alone. A value given as a limit tells only on which side of the number the result lay.

Sequence of PV RNA-dependent RNA polymerase 3Dpol (P03300 1749-2209 limits assumed): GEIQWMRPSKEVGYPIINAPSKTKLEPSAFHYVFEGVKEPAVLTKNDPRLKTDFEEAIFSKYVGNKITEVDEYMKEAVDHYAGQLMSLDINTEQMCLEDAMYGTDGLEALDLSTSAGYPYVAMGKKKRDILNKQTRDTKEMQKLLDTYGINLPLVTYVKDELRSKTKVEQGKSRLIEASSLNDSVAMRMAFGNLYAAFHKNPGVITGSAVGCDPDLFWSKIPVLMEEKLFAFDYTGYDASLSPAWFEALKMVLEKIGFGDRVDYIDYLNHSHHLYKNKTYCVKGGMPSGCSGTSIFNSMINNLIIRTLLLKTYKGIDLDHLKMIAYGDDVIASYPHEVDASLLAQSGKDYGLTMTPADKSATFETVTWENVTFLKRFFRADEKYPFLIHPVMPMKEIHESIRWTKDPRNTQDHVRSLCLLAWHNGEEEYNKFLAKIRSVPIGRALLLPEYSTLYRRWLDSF

Turning to `Nc1nc(O)c2[nH]nnc2n1` [azaguanine-8], in the data set on HeLa cells, the “Vc (%), cell viability rate on HeLa cells” value (from here on “Vc (%), cell viability rate”) is recorded as 47.54%.
For `CCCC1C(=O)N2C(N(C)C)=Nc3ccc(C)cc3N2C1=O` (stereo not drawn) [azapropazone], the viability at 10 µM in “in vitro” worked out at 91.2%.
The same measure, in the same setting: then `CC(=O)O[C@]1(C(C)=O)CC[C@H]2[C@@H]3C=C(Cl)C4=CC(=O)[C@@H]5C[C@@H]5[C@]4(C)[C@H]3CC[C@@]21C` [cyproterone acetate], with 75.4%.
With `Nc1ccn([C@@H]2O[C@H](COP(=O)(O)OP(=O)(O)OP(=O)(O)O)[C@@H](O)C2(F)F)c(=O)n1` [dFdC-TP, 2′,2′-difluoro-2′-deoxycytidine triphosphate], in [1], the “Inhibition of dsRNA elongation” value was “apparent inhibition; also recorded: weak inhibition” and the “Inhibition of dsRNA synthesis or elongation” value is given as “complete inhibition”.
As for `CCOc1ccc(Cc2nccc3cc(OCC)c(OCC)cc23)cc1OCC` [ethaverine hydrochloride], the viability at 10 µM in the data set “in vitro” was 88.4%.
On the same count and under the same terms, then `COc1cc2ncnc(Nc3ccc(F)c(Cl)c3)c2cc1OCCCN1CCOCC1` [gefitinib], with 80.1%.
With `Nc1ccn([C@@H]2O[C@H](CO)[C@@H](O)C2(F)F)c(=O)n1` [gemcitabine, 2′,2′-difluoro-2′-deoxycytidine], the IC50 in [2] (read-out: IC50 against Sb-GLuc on the basis of luminescent signal) was 2600 nM. Moreover, the “Protection of HeLa cells from WT-PV (plaque assay)” value in [3] is reported as “completely protected”. Moreover, the “Increase in viral RNA copies of WT-PV” value in data set [4] is listed as “No noticeable increase”. For the same compound, in data set [4] (Enterovirus C, HeLa, read-out: Inhibition on WT-PV replication), the inhibition at 2 µM was greater than 90%. Moreover, in the data set with Sb-GLuc, the “Inhibition of Sb-GLuc replication in 293T cells” value is reported as “inhibited Sb-GLuc replication”. Further, the “Cytotoxic effect in 293T cells” value with 293T cells is reported as “without cytotoxic effect”. The “Effect on Vero cells” value in the data set with Vero cells is given as “kills Vero cells”. For the same compound, the “Impact on immune cell counts and liver/kidney functions” value in [5] is “subtle and reversible impact”. Besides, in “in vitro”, the viability at 10 µM amounted to 87.9%.
For `CCC(C)n1ncn(-c2ccc(N3CCN(c4ccc(OCC5COC(Cn6cncn6)(c6ccc(Cl)cc6Cl)O5)cc4)CC3)cc2)c1=O` (stereo not drawn) [itraconazole], the “Protection of HeLa cells from WT-PV (plaque assay)” value in data set [3] was “partial protective effect”. In “in vitro”, the viability at 10 µM is 79.4%.
In the same order, the values of `CC(=O)N1CCN(c2ccc(OCC3COC(Cn4ccnc4)(c4ccc(Cl)cc4Cl)O3)cc2)CC1` (stereo not drawn) [ketoconazole] are “partial protective effect” and 103%.
For the compound `NC[C@H]1O[C@H](O[C@H]2[C@H](O[C@@H]3O[C@H](CO)[C@@H](O)[C@H]3O)[C@@H](O)[C@H](N)C[C@@H]2N)[C@H](N)[C@@H](O)[C@@H]1O.O=S(=O)(O)O` [ribostamycin sulfate salt], the “Ec (%), inhibitory effect on poliovirus replication” value (“Ec (%), inhibitory effect” for short) in data set [2] was 81.9%. Further, the “Vc (%), cell viability rate” value in the data set on HeLa cells worked out at 88.8%.
For `C=C(NC(=O)C(=C)NC(=O)c1csc(C2=N[C@@H]3c4csc(n4)[C@H]4NC(=O)c5csc(n5)[C@H]([C@](C)(O)[C@@H](C)O)NC(=O)[C@H]5CSC(=N5)/C(=C/C)NC(=O)[C@H]([C@@H](C)O)NC(=O)c5csc(n5)[C@]3(CC2)NC(=O)[C@H](C)NC(=O)C(=C)NC(=O)[C@H](C)NC(=O)[C@H]([C@@H](C)CC)N[C@@H]2C=Cc3c([C@H](C)O)cc(nc3[C@H]2O)C(=O)O[C@@H]4C)n1)C(N)=O` [thiostrepton], in “in vitro”, the viability at 10 µM was found to be 87.9%.
`Cl.Cl.OCCN1CCN(CC/C=C2/c3ccccc3Sc3ccc(Cl)cc32)CC1` [zuclopenthixol hydrochloride]: the “Ec (%), inhibitory effect” value in [2] came out at 81.8%. Moreover, the “Vc (%), cell viability rate” value in the data set with HeLa cells was determined as 92.0%.
For the compound meclocycline sulfosalicylate, the “Ec (%), inhibitory effect” value in data set [2] is 82.1%. For the same compound, in the data set on HeLa cells, the “Vc (%), cell viability rate” value was determined as 81.5%.
